Source: patent publication US12559481B2, “Quinoline derivatives” (ELANCO ANIMAL HEALTH GMBH, priority 2018, dated 2026)

Experiments:
[1] = system: Dirofilaria immitis third-stage larvae; assay: In vitro assay 5: Dirofilaria immitis (DIROIM L4) larval motility; details: 72 h, read-out: EC50 (reduction of motility)
[2] = system: Adult Nippostrongylus brasiliensis; assay: In vitro assay 3: Nippostrongylus brasiliensis (NIPOBR), acetylcholine esterase readout; details: read-out: activity (reduction of AChE compared to negative control); for inhibition at 10 µg/mL: 10 μg/ml; for inhibition at 1 µg/mL: 1 μg/ml
Experimental: In Vitro Assay 3: Nippostrongylus Brasiliensis (NIPOBR)
Adult Nippostrongylus brasiliensis were washed with saline buffer containing 100 U/ml penicillin, 0.1 mg/ml streptomycin and 2.5 μg/ml amphotericin B. Test compounds were dissolved in DMSO and worms were incubated in medium in a final concentration of 10 μg/ml (10 ppm) respectively 1 μg/ml (1 ppm). An aliquot of the medium was used to determine the acetylcholine esterase activity in comparison to a negative control. The principle of measuring acetylcholine esterase as readout for anthelmintic activity was described in Rapson et al (1986) and Rapson et al (1987).

D. immitis Slo-1 = D. immitis Slo-1 (Dirofilaria immitis, UniProt I0DFK5); assay: In vitro assay 2: D. immitis Slo-1, membrane potential in recombinant CHO cell line; format: cell-based
[3] = system: Dirofilaria immitis microfilariae; assay: In vitro assay 4: Dirofilaria immitis microfilariae (DIROIM L1) motility; details: 72 h, read-out: EC50 (reduction of motility)
C. elegans Slo-1a = C. elegans Slo-1a (Caenorhabditis elegans, UniProt Q95V25)
Experimental: In Vitro Assay 1: C. elegans Slo-1a—Action at a Recombinant C. elegans Cell Line
Generation of a Stable C. elegans CHO Cell Line
For transfection with plasmid DNA to express C. elegans Slo-1a (accession number AAL28102) CHO cells were passaged to 40% confluence before adding the transfection solution to the cell culture. The transfection solution included 300 μL OptiMEM (Life Technologies, Nr.: 31985), 2 μL (=6 μg) of plasmid DNA containing the C. elegans Slo 1a gene and 9 μL FugeneHD (Promega, Nr.: E2311), and was added to the cells prior to incubation for 48 hours at 37° C., 5% CO2. The transfection medium was exchanged for the selection medium which contains additional G418 (2 mg/ml, Invitrogen, Nr.: 10131) and the cells were seeded into 384 well plates (300 cells/well). After a few weeks, the remaining surviving cells were tested with a voltage sensitive dye (Membrane Potential Assay Kit, Molecular Devices Nr.: R8034) for K+ channel expression. Positive cell clones were purified by the limited dilution technique. For this the clone with the highest and most robust signal in the voltage sensitive dye assay was further subcloned (incubated) in 384 well plates (0.7 cells/well) in order to obtain clonal purity. This generated a final stable CHO cell line expressing the C. elegans Slo-1a.
Cells were cultured at 37° C., and 5% CO2 in MEMalpha with Glutamax I (Invitrogen, Nr.: 32571), supplemented with 10% (v/v) heat inactivated fetal bovine serum (Invitrogen, Nr.: 10500), G418 (1 mg/ml. Invitrogen. Nr.: 10131). Cells were detached using Accutase (Sigma. Nr.: A6964).
Membrane Potential Measurements
Laboratory compound testing was performed on 384-well microtiter plates (MTPs, Greiner, Nr.: 781092), 8000 cells/well were plated onto 384-well MTPs and cultured for 20 to 24 hours at 37° C., and 5% CO2. After removal of the cell culture medium, the cells were washed once with tyrode (150 mM NaCl, 0.3 mM KCl, 2 mM CaCl2. 1 mM MgCl2. 0.8 mM NaH2PO4, 5 mM Glucose, 28 mM Hepes, pH 7.4) and then loaded with the voltage sensitive dye of the Membrane Potential Assay Kit diluted in tyrode for 1 h at room temperature.
After starting the measurement of fluorescence using a FLIPR Tetra (Molecular Devices, Exc. 510-545 nm, Emm. 565-625 nm), test compounds were added followed by the addition of KCl tyrode (final assay concentration: 70 mM KCl, 2 mM CaCl2, 1 mM MgCl2, 0.8 mM NaH2PO4, 5 mM Glucose, 28 mM Hepes, pH 7.4, including the voltage sensitive dye). The measurement was completed after 7 minutes.
The data were evaluated by using the ActivityBase XLfit software (IDBS) for curve fitting and calculation of the half-maximal effective concentration (EC50) and are reported as negative decadic logarithm (pE50).

Haemonchus contortus = assay: In vitro assay 7: Haemonchus contortus (HAEMCO) larval mortality; details: 120 h, read-out: activity (larval mortality)
Experimental: In Vitro Assay 7: Haemonchus contortus (HAEMCO)
Solvent: Dimethyl Sulfoxide
Approximately 40 larvae of the red stomach worm (Haemonchus contortus) are transferred into a test tube containing compound solution.
After 5 days the percentage of larval mortality is recorded. 100% efficacy means all larvae are killed, 0% efficacy means no larvae are killed.

Cooperia curticei = assay: In vitro assay 6: Cooperia curticei (COOPCU) larval mortality; details: 120 h, read-out: activity (larval mortality)
Experimental: In Vitro Assay 6: Cooperia curticei (COOPCU)
Solvent: Dimethyl Sulfoxide
Approximately 40 nematode larvae (Cooperia curticei) are transferred into a test tube containing the compound solution.
After 5 days percentage of larval mortality is recorded. 100% efficacy means all larvae are killed; 0% efficacy means no larvae are killed.

[4] = log P by HPLC on reversed phase columns (LC-MS Method 0)
Experimental: Measurement of log P values was performed according to EEC directive 79/831 Annex V.A8 by HPLC (High Performance Liquid Chromatography) on reversed phase columns with the following methods, instrument(s): Agilent 1100 LC system, Agilent MSD system, HTS PAL; Waters IClass Acquity UPLC, SQD2 (MS), PDA (LV). • ^[a] log P value is determined by measurement of LC-UV, in an acidic range, with 0.1% formic acid in water and acetonitrile as eluent (linear gradient from 10% acetonitrile to 95% acetonitrile). • ^[b] log P value is determined by measurement of LC-UV, in a neutral range, with 0.001 molar ammonium acetate solution in water and acetonitrile as eluent (linear gradient from 10% acetonitrile to 95% acetonitrile).
Calibration was done with straight-chain alkan-2-ones (with 3 to 16 carbon atoms) with known log P values (measurement of log P values using retention times with linear interpolation between successive alkanones). Lambda-max-values were determined using UV-spectra from 200 nm to 400 nm and the peak values of the chromatographic signals.

Chain of C. elegans Slo-1a (Q95V25 whole entry): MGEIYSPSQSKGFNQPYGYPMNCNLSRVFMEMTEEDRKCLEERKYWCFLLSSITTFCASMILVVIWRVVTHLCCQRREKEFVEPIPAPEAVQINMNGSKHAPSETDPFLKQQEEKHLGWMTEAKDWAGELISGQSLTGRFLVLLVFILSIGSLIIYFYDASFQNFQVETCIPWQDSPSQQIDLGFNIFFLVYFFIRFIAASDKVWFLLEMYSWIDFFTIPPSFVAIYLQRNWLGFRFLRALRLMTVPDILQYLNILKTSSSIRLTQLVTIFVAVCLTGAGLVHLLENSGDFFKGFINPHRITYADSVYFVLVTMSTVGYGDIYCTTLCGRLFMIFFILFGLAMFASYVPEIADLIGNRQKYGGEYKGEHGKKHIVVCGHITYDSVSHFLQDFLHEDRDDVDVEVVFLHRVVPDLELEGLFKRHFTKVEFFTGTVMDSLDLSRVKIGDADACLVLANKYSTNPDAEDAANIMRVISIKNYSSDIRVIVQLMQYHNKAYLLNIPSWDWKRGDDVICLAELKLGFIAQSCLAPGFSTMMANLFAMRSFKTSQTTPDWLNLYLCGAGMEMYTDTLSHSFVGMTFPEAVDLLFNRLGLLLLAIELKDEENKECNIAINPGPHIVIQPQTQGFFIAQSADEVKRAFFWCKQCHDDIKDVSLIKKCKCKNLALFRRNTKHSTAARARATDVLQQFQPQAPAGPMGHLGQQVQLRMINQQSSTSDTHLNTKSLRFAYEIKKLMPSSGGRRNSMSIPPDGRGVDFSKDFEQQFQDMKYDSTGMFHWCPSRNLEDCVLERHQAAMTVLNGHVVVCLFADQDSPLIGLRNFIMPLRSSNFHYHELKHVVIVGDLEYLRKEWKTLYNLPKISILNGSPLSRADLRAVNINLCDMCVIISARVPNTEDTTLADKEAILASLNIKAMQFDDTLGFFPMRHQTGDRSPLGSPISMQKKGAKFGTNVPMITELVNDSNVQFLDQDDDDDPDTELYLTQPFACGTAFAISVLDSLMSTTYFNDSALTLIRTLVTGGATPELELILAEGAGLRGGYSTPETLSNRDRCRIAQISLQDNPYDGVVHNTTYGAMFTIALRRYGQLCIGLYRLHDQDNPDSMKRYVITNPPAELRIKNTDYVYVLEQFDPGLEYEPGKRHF
Chain of D. immitis Slo-1 (I0DFK5 1-1119): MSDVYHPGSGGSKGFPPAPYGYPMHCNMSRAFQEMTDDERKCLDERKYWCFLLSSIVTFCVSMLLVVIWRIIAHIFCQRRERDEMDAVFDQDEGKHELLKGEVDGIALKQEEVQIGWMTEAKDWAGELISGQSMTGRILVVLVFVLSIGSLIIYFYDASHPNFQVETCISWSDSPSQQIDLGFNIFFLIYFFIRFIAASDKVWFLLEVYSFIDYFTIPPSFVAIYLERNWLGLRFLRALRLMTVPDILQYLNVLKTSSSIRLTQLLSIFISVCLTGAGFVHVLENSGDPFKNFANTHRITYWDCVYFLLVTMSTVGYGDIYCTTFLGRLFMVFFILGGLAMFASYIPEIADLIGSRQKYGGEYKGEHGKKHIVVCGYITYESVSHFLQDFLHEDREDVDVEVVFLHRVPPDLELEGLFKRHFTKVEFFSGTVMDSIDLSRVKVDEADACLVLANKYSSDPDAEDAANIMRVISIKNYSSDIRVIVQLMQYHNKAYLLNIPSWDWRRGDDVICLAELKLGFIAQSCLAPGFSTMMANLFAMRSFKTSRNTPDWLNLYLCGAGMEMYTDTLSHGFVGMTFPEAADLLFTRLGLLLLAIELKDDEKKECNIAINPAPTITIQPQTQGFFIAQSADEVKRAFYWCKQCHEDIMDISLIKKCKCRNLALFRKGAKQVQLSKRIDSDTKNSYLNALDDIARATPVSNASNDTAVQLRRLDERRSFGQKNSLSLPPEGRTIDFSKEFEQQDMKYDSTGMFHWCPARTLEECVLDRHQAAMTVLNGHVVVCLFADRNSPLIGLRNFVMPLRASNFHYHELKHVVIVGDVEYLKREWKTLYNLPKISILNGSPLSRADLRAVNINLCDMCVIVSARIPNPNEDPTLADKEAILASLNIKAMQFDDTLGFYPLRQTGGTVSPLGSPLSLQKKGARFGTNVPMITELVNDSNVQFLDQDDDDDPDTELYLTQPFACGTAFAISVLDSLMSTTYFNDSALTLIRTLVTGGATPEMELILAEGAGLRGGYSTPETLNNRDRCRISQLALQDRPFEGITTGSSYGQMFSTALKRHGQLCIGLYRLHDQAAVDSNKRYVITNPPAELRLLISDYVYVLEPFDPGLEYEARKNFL

Compound | EC50 [1] [µg/mL] | inhibition at 10 µg/mL [2] [%] | EC50 (D. immitis Slo-1) [nM] | EC50 [3] [µg/mL] | inhibition at 1 µg/mL [2] [%] | EC50 (C. elegans Slo-1a) [nM] | mortality at 4 ppm (Haemonchus contortus) [%] | mortality at 20 ppm (Haemonchus contortus) [%] | mortality at 0.8 ppm (Cooperia curticei) [%] | mortality at 4 ppm (Cooperia curticei) [%] | chromatographic logP [4]
O=C(NC1CCSc2ccc(F)cc21)c1cnc2c(-c3cc(F)cc(F)c3F)c(F)ccc2c1N1CC(F)C1 (stereo not drawn) [Example 8] | < 0.1 | > 80 | 316 to 5010 | < 0.1 |  |  |  |  |  |  | 
O=C(N[C@H]1CCOc2ccc(F)cc21)c1cnc2c(-c3cc(F)cc(F)c3F)c(F)ccc2c1N1CC(F)C1 [Example 10] | < 0.1 | > 80 | 31.6 to 316 | < 0.1 | > 80 | < 3.16 |  |  |  |  | 
O=C(N[C@H]1CCOc2ccccc21)c1cnc2c(-c3cc(F)cc(F)c3F)c(F)ccc2c1C1CCOCC1 [Example 3, N-[(4S)-3,4-Dihydro-2H-chromen-4-yl]-7-fluoro-4-(tetrahydro-2H-pyran-4-yl)-8-(2,3,5-trifluorophenyl)quinoline-3-carboxamide] | < 0.1 | > 80 | 3.16 to 31.6 | < 0.1 | > 80 |  |  |  |  |  | 
O=C(N[C@H]1CCOc2ccccc21)c1cnc2c(-c3cc(F)cc(F)c3F)cccc2c1C1CCOCC1 [Example 2, N-[(4S)-3,4-Dihydro-2H-chromen-4-yl]-4-(tetrahydro-2H-pyran-4-yl)-8-(2,3,5-trifluorophenyl)quinoline-3-carboxamide] | < 0.1 | > 80 | 3.16 to 31.6 | < 0.1 | > 80 | < 3.16 | 90 | 90 | 100 | 100 | 
Cc1ccc2c(c1)[C@@H](NC(=O)c1cnc3c(-c4cc(F)cc(F)c4F)c(F)ccc3c1N1CC(F)C1)CCO2 [Example 9] | < 0.1 | > 80 | 316 to 5010 | < 0.1 | > 80 |  |  |  |  |  | 
O=C(N[C@H]1CCc2ccccc21)c1cnc2c(-c3cc(F)cc(F)c3F)cccc2c1C1CCOCC1 [Example 19] | < 0.1 | > 80 | 316 to 5010 | < 0.1 | > 80 | < 3.16 |  |  |  |  | 
CCc1c(C(=O)N[C@H]2CCOc3ccccc32)cnc2c(-c3cc(F)cc(F)c3F)c(Cl)ccc12 [Example 21] | < 0.1 | > 80 |  | < 0.1 | > 80 | < 3.16 |  |  |  |  | 
CC(C)Oc1ccc2c(C3CCOCC3)c(C(=O)N[C@H]3CCOc4ccccc43)cnc2c1-c1cc(F)cc(F)c1F [Example 18] | < 0.1 | > 80 | 316 to 5010 | < 0.1 | > 80 |  |  |  |  |  | 
O=C(N[C@H]1CCOc2ccccc21)c1cnc2c(-c3cc(F)cc(F)c3F)c(F)ccc2c1N1CC(F)C1 [Example 5, N-[(4S)-3,4-Dihydro-2H-chromen-4-yl]-7-fluoro-4-(3-fluoroazetidin-1-yl)-8-(2,3,5-trifluorophenyl)quinoline-3-carboxamide] | < 0.1 | > 80 | 3.16 to 31.6 | < 0.1 | > 80 | 3.16 to 31.6 |  |  |  |  | 1.93
CCc1c(C(=O)N[C@H]2CCc3ccccc32)cnc2c(-c3cc(F)cc(F)c3F)c(Cl)ccc12 [Example 22] | < 0.1 | > 80 | 3.16 to 31.6 | < 0.1 | > 80 |  |  |  |  |  | 
O=C(NC1COc2ccccc21)c1cnc2c(-c3cc(F)cc(F)c3F)cccc2c1C1CCOCC1 (racemic) [Example 17] | < 0.1 | > 80 | 316 to 5010 | < 0.1 | > 80 |  |  |  |  |  | 
O=C(N[C@H]1CCOc2ccccc21)c1cnc2c(-c3cc(F)cc(F)c3F)cccc2c1N1CC(F)C1 [Example 15] | < 0.1 | > 80 | 31.6 to 316 | < 0.1 | > 80 | < 3.16 |  |  |  |  | 
O=C(N[C@H]1CCc2ccccc21)c1cnc2c(-c3cc(F)cc(F)c3F)c(F)ccc2c1N1CC(F)C1 [Example 12] | < 0.1 | > 80 | 31.6 to 316 | < 0.1 | > 80 | < 3.16 |  |  |  |  | 
CC1(C)C[C@H](NC(=O)c2cnc3c(-c4cc(F)cc(F)c4F)c(F)ccc3c2N2CC(F)C2)c2ccccc2O1 [Example 13] | < 0.1 | > 80 | 316 to 5010 | < 0.1 |  | 3.16 to 31.6 |  |  |  |  | 
O=C(N[C@H]1CCOc2ccccc21)c1cnc2c(-c3cc(F)cc(F)c3F)c(F)ccc2c1C1=CCOCC1 [Example 6, N-[(4S)-3,4-dihydro-2H-chromen-4-yl]-4-(3,6-dihydro-2H-pyran-4-yl)-7-fluoro-8-(2,3,5-trifluorophenyl)quinoline-3-carboxamide] | < 0.1 | > 80 | 3.16 to 31.6 | < 0.1 | > 80 |  |  |  |  |  | 
O=C(N[C@H]1CCOc2ccccc21)c1cnc2c(Br)c(F)ccc2c1N1CC(F)C1 [Intermediate 15A, 8-Bromo-N-[(4S)-3,4-dihydro-2H-chromen-4-yl]-7-fluoro-4-(3-fluoroazetidin-1-yl)quinoline-3-carboxamide] |  |  |  |  |  |  |  |  |  |  | 1.29
O=C(N[C@H]1CCc2ccccc21)c1cnc2c(-c3cc(F)cc(F)c3F)c(F)ccc2c1C1CCOCC1 [Example 16] | < 0.1 | > 80 | 3.16 to 31.6 | < 0.1 | > 80 | < 3.16 |  |  |  |  | 
O=C(N[C@H]1CCCc2ccccc21)c1cnc2c(-c3cc(F)cc(F)c3F)c(F)ccc2c1N1CC(F)C1 [Example 11] | < 0.1 | > 80 |  | < 0.1 | > 80 | < 3.16 |  |  |  |  | 
O=C(N[C@H]1CCOc2ccccc21)c1cnc2c(Br)c(F)ccc2c1Cl [Intermediate 14A, 8-Bromo-4-chloro-N-[(4S)-3,4-dihydro-2H-chromen-4-yl]-7-fluoroquinoline-3-carboxamide] |  |  |  |  |  |  |  |  |  |  | 3.18
N#Cc1ccc2c(c1)[C@@H](NC(=O)c1cnc3c(-c4cc(F)cc(F)c4F)c(F)ccc3c1N1CC(F)C1)CCO2 [Example 14] | < 0.1 | > 80 | 316 to 5010 | < 0.1 |  | 31.6 to 316 |  |  |  |  | 
O=C(N[C@H]1CCCc2ccccc21)c1cnc2c(-c3cc(F)cc(F)c3F)cccc2c1C1CCOCC1 [Example 20] | < 0.1 | > 80 | 31.6 to 316 | < 0.1 | > 80 |  |  |  |  |  | 
COc1ccc2c(C3CCOCC3)c(C(=O)N[C@H]3CCOc4ccccc43)cnc2c1-c1cc(F)cc(F)c1F [Example 7, N-[(4S)-3,4-dihydro-2H-chromen-4-yl]-7-methoxy-4-(tetrahydro-2H-pyran-4-yl)-8-(2,3,5-trifluorophenyl)quinoline-3-carboxamide] | < 0.1 | > 80 | 3.16 to 31.6 | < 0.1 | > 80 | < 3.16 |  |  |  |  | 
CCc1c(C(=O)N[C@H]2CCOc3ccccc32)cnc2c(-c3cc(F)cc(F)c3F)c(F)ccc12 [Example 4, N-[(4S)-3,4-Dihydro-2H-chromen-4-yl]-4-ethyl-7-fluoro-8-(2,3,5-trifluorophenyl)quinoline-3-carboxamide] | < 0.1 | > 80 | 3.16 to 31.6 | < 0.1 | > 80 | < 3.16 |  |  |  |  | 
